According to patent publication EP0574185B1, “PGE1 analogs” (NEWPHARMA INTERNATIONAL CORPORATION, priority 1992, dated 1993):

Experiments:
guinea pigs = assay: Histamine-aerosol induced bronchoconstriction in guinea pig; assay type: in vivo; details: 150 µg/kg, i.p., 5 minutes before histamine challenge; n= 8; initial 115 ± 6, final 127 ± 4
Protocol: The protective effect of B-407 on the bronchoconstriction induced by histamine aerosol in male guinea pigs weighing 700 g was evaluated. One guinea pig at a time was placed into a 15 l hermetically closed container. Then 200 µl of histamine solution (600 µg of histamine base) was sprayed with compressed air at a pressure of 1 PSI. The time at which the hypoxic symptoms (increase of breathing frequency, bronchospasm, dysnea, apnea and finally the collapse of the animal (falling down) was determined.
The working protocol comprised 3 parts: • 1) The determination of the falling down time of the guinea pigs exposed to the histamine aerosol was determined.
The results were expressed as the time in seconds elapsed before the animals fell down ["Antihistamine Agents" (Cap. 22) in: "Screening Methods in Pharmacology". Academic Press, New York (1965). Brit. J. Pharmacology. 16, 59 (1961); Arch. Intern. Pharmacodyn. 129, 77 (1960); J. Pharmacol. Exptl. Therap. 131, 73 (1961); Arch. Intern. Pharmacodyn. 115, 332 (1958); "Les Antihistaminiques de Synthése", Chapter 22, page 784 in : "Structure et activité pharmacodynamique de medicaments du systéme nerveux vegetatif". S. Karger Bale (Suisse)- New York: (1948)].

[1] = tested on: isolated uterus of estrogenized rats; assay: Effect on isolated uterus of estrogenized rats (non-cumulative concentration-response curves); set-up: species or system Wistar rats; details: for Area (g of tension/2 min): average
Protocol: Concentration-response curves were carried out on isolated uterus of estrogenized rats. Female Wistar rats weighing 250g to 300g were employed. The animals were pretreated with 0.1 mg/kg of estradiol, subcutaneously, 24 h before the experiment. The whole uterus was dissected and excised and a portion of 1 cm of one horn was incubated in a 10 ml organ bath, at 30°C, bubbled with a mixture of 95 % O2 plus 5 % CO2. The nutrient solution was De Jalon solution described in the International Pharmacopea II^nd Ed. and containing 4x10^-7 M sodium diclofenac. The organ was left to stabilize in the solution for one hour. No spontaneous contractions were detected under these experimental conditions. To carry out the concentration-response curves, volumes of solutions of either natural prostaglandins or B-407 were added in order to obtain concentrations in the organ bath between 10^-10 M and 3x10^-6 M. After 2 minutes, the organ was washed three times during a 15 minutes time period before adding the next test solution. In this way the concentration-response curves obtained were not cumulative ["The rat uterus preparation" in "Pharmacological Experiments on Isolated Preparations". E. and S. Livingstone Ltd. Edinburgh and London (1968), p. 92].
Recording of the contractions of the isolated uterus were on a Berger polygraph with a FT03C transducer. The frequency and magnitude of the responses were globally evaluated by calculating the total area recorded at fixed time periods as will be further explained.
(§1) The frequency and magnitude of the responses were globally evaluated by calculating the total area recorded at a fixed time period as will be further explained. The areas under the curve of the recording paper, over 15 minutes periods, were cut and weighed both in the concentration-response curves and in the potentiating experiments.
(§2) The calibration was made by weighing a piece of paper which corresponded to a tension of 1 g at the working sensitivity along 2 minutes. Therefore, a relationship of area expressed in g/2 min was obtained and then the weights of the areas of the responses were transformed to unities of area. The results were expressed as the mean ± the standard error of the areas obtained. The statistical evaluation of the differences was carried out either by ANOVA or by Student's-t-test, as appropriate.

[2] = tested on: isolated uterus under diestrous (without any spontaneous contractions); assay: B2: effect on isolated uterus of diestrous rat without spontaneous contractions (De Jalon solution with sodium diclofenac, non-cumulative curves); set-up: species or system Wistar rats; details: for Area (g of tension/2 min): B2, basal 1,96
Protocol: (B1)- Concentration-response curves on isolated rat uterus under diestrous condition were carried out. Wistar rats weighing 250 g to 300 g were employed. The diestrous phase was detected by a daily vaginal smear. The uterus was dissected out and a portion of a horn was placed in a 10 ml organ bath in a similar way to that described in part A. The bath temperature was maintained at 37°C, bubbled with a mixture of 95 % O2 and 5 % CO2 in a Krebs nutrient solution. The organ was left to stabilize for one hour. The isolated uterus presented basal spontaneous contractions under these experimental conditions. Cumulative concentration-response curves were carried out with the addition of either 100 µl or 300 µl of solutions of either natural prostaglandins or B-407 in concentrations of 10^-10 M to 10^-6 M, each 15 minutes without any washing. Uterine contractions and quantitation were performed as described in (A). (B2)- Concentration-response curves in isolated uterus under diestrous (without any spontaneous contractions) were carried out. Sodium diclofenac was added to De Jalon nutrient solution to a final concentration of 4x10^-6 M. The organ was left to stabilize until the absence of spontaneous contractions. Non-cumulative concentration-response curves were obtained. Recordings of the contractions and their quantitation were performed as described in (A).
as §1, §2

Swiss mice = assay: Exploratory activity in mice (open field); assay type: in vivo; details: i.p., control 88 ± 8, n=10
Protocol: The effect of B-407 on the exploratory activity was evaluated in Swiss mice of 30 g to 40 g in an open-field of 40 cm x 40 cm x 25 cm divided in 9 quadrants. One mouse at a time was placed into the open field to assess its exploratory activity by counting the number of quadrants crossed in 4 consecutive periods of 3 minutes each.
The working protocol consisted of two experiments with 3 groups of 10 animals each. In both experiments, each group of mice were pretreated with B-407, 0 µg/kg, 30 µg/kg and 100 µg/kg five min prior to the test. In one experiment, the animals were treated, p.o., with a combination of the antispasmodics homatropine methylbromide (5 mg/kg) and papaverine (5 mg/kg) administered 10 min prior to B-407. In the other experiment, this treatment was replaced by saline solution. The two experiments were carried out at the same time.
The results were expressed as the average ± standard error of each group and the statistical significance of the differences were evaluated by means of the Student's-t-test.

## CCCCC(C)(O)C/C=C/[C@H]1[C@H](O)CC(=O)[C@@H]1CCCC/C=C/C(=O)OC (mixture of isomers) [B-407, trans-Δ^2-15-deoxy-16-hydroxy-16-methyl PGE1 methyl ester]
Guinea pigs
  Falling down time (sec) by bronchospasm: 358 ± 4 s
[1]; 1x10^-6 M, n=6
  Area (g of tension/2 min): 1,13 g of tension/ 2 min
[1]; 1x10^-7 M, n=6
  Area (g of tension/2 min): 0,31 g of tension/ 2 min
[1]; 1x10^-8 M, n=6
  Area (g of tension/2 min): 0,20 g of tension/ 2 min
[1]; 1x10^-9 M, n=6
  Area (g of tension/2 min): 0,12 g of tension/ 2 min
[1]; 1x10^-10 M, n=6
  Area (g of tension/2 min): 0,14 g of tension/ 2 min
[1]; 3x10^-6 M, n=5
  Area (g of tension/2 min): 0,67 g of tension/ 2 min
[1]; PGE1 results are not shown
  times less potent than PGE1 on rat uterine contractility in vitro: about 4 times
[2]; B2, with diclofenac
  maximum response of the uterotonic effect relative to the basal one: duplicates the basal one
[2]; 1x10^-6 M
  Area (g of tension/2 min): 4,24 g of tension/2 min
[2]; 1x10^-7 M
  Area (g of tension/2 min): 3,73 g of tension/2 min
[2]; 1x10^-8 M
  Area (g of tension/2 min): 2,10 g of tension/2 min
[2]; 1x10^-9 M
  Area (g of tension/2 min): 1,91 g of tension/2 min
Swiss mice; 30 µg/kg
  N° Quadrants/12 min: 87 ± 8
Swiss mice; 100 µg/kg, p < 0,05
  N° Quadrants/12 min: 48 ± 8
